This passage reports IC50, inhibition and activity results from article PMC4910235, “Selenophene and thiophene-core estrogen receptor ligands that inhibit motility and development of parasitic stages of Haemonchus contortus” (Parasites & Vectors, 2016).

Like-named read-outs stand apart in the source and are kept apart here.

Assay [1] concerns exsheathed third-stage larvae (xL3s) of H. contortus. Kind of assay: xL3 motility assay (whole-organism screen and dose-response). Type of assay: cell-based, Haemonchus contortus. As to the method:
(§1) The selenophene and thiophene-core ligands (n = 74) (Additional file 1) were screened at a concentration of 20 μM on exsheathed third-stage larvae (xL3s) of H. contortus in 96-well microculture plates (cat. no. 3635; Corning 3650, Life Sciences, Corning, USA) using relevant control compounds (i.e. moxidectin and monepantel), as described previously. In brief, compounds were dissolved to a stock concentration of 10 mM in either dimethyl sulfoxide (DMSO) or methanol (Sigma-Adrich Scientific, St. Louis, USA). These ligands were then individually diluted to the final concentration of 20 μM using Luria Bertani medium (LB) supplemented with 100 IU/ml of penicillin, 100 μg/ml of streptomycin and 2.5 μg/ml of amphotericin (LB*). Compounds were dispensed (in triplicate) into the wells of a 96-well microculture plate using a multichannel pipette. In addition, the negative controls (LB*, LB* + 0.5 % solvent; six wells each), and positive controls (20 μM of monepantel; Zolvix, Novartis Animal Health, Basel, Switzerland and 20 μM of moxidectin; Cydectin, Virbac, Carros, France; triplicate wells) and xL3s (~300/well) were dispensed into wells of the plate using an automated multichannel pipette (Viaflo Assist/II, Integra Biosciences, Zizers, Switzerland). […], a video recording (5 s) was taken of each well of the 96-well microculture plate (containing xL3s) using a greyscale camera (Rolera Bolt CMOS, Qimaging Scientific, Surrey, Canada) and a motorised X-Y axis stage (BioPoint 2, Ludl Electronics Products, Hawthorne, USA). Individual videos were processed to calculate a motility index (MI) using an algorithm described previously. MIs were normalised to the negative and positive controls (to remove plate-to-plate variation) using the program Prism (v.6 GraphPad Software, USA). Z’-scores were calculated to validate the performance of the screening assay; reliable assays achieve Z’-scores of between 0.5 and 1 [28]. A compound was recorded as having an activity if it reduced xL3 motility by ≥ 70 % following incubation for 72 h. […] Compounds that reduced the motility of xL3s were also tested for their ability to inhibit the motility of L4s (same protocol as for xL3s) and/or to affect the development of xL3s to L4s. Following the measurement of L4 motility, larvae were re-incubated for 4 more days and fixed with 1 % iodine (50 μl). Then, L4 development was assessed based on the presence of a well-developed mouth/pharynx using a light microscope and expressed as a percentage of the total number of larvae examined (n = 30).
(§2) All assays (to assess xL3 motility, L4 development and L4 motility) were performed in triplicate, three times, on separate days.

Assay [2] deals with fourth-stage larvae (L4s) of H. contortus. The experiment in a line: L4 motility assay. The class given is cell-based. As to the method:
as §1, with “[28].” for “[28]. A compound was recorded as having an activity if it reduced xL3 motility by ≥ 70 % following incubation for 72 h.”
as §2

Where [3] appears, read: Haemonchus contortus, 24 h; read-out: xL3 motility (IC50s in μM).
Where [4] appears, read: Haemonchus contortus, 48 h; read-out: xL3 motility (IC50s in μM).
Where [5] appears, read: Haemonchus contortus, 72 h, 20 μM, 72 h; percent of motility compared with controls; mean of triplicate ± SEM; read-out: xL3 Motility Index(%).
Where [6] appears, read: Haemonchus contortus, 72 h; read-out: xL3 motility (IC50s in μM).
Setting [7] is: Haemonchus contortus; 20 μM, 72 h; read-out: inhibition of xL3 motility in the primary screen.
[8] abbreviates: Haemonchus contortus, 24 h; read-out: L4 motility (IC50s in μM).
Setting [9] is: Haemonchus contortus, 48 h; read-out: L4 motility (IC50s in μM).
Where [10] appears, read: Haemonchus contortus, 72 h; read-out: L4 motility (IC50s in μM).

As to `Oc1ccc(-c2ccc(-c3ccc(O)cc3Cl)[se]2)c(Cl)c1` [WZY-2], the IC50 in assay [1] (Haemonchus contortus, 24 h, read-out: xL3 motility (IC50s in μM)) came to 10 µM; in assay [1] (Haemonchus contortus, 48 h, read-out: xL3 motility (IC50s in μM)), 13 µM; in assay [1] (Haemonchus contortus, 72 h, read-out: xL3 motility (IC50s in μM)), 12.1 µM; in assay [2] (Haemonchus contortus, 24 h, read-out: L4 motility (IC50s in μM)), 9.3 µM; in assay [2] (Haemonchus contortus, 48 h, read-out: L4 motility (IC50s in μM)) it was 6.1 µM; in assay [2] (Haemonchus contortus, 72 h, read-out: L4 motility (IC50s in μM)), 6.2 µM. Further, the inhibition at 20 µM in assay [1] (Haemonchus contortus, 72 h, read-out: inhibition of xL3 motility in the primary screen) was more than 70%. In assay [1] (Haemonchus contortus, 72 h, read-out: xL3 Motility Index(%), 20 μM, 72 h; percent of motility compared with controls; mean of triplicate ± SEM), the activity at 20 µM stood at 12.3 ± 0.1%.
Consider `Oc1ccc(-c2cscc2-c2ccc(O)cc2Cl)c(Cl)c1` [MJ-17], for which the IC50 was 25.7 µM in assay [1] (setting [3]); 25.6 µM in assay [1] (setting [4]); 23.8 µM in assay [1] (setting [6]); 23.8 to 25.6 µM in assay [1] (Haemonchus contortus; read-out: xL3 motility IC50 at both 48 h and 72 h); 13.9 µM in assay [2] (setting [8]); 6.2 µM in assay [2] (setting [9]). In addition, the IC50 is 6.1 µM in assay [2] (setting [10]); 6.1 to 6.2 µM in assay [2] (Haemonchus contortus; read-out: L4 motility IC50 at both 48 h and 72 h). Besides, the activity at 20 µM in assay [1] (setting [5]) was determined as 20.6 ± 4.9%. Further, the inhibition at 20 µM in assay [1] (setting [7]) is more than 70%.
With `Cc1cc(O)ccc1-c1ccc(-c2ccc(O)cc2F)s1` [MJ-22], the IC50 stood at 6.6 µM in assay [1] (setting [3]); 7.2 µM in assay [1] (setting [4]); 9.6 µM in assay [1] (setting [6]); 6.4 µM in assay [2] (setting [8]); 3.2 µM in assay [2] (setting [9]); 6.2 µM in assay [2] (setting [10]). In addition, the activity at 20 µM in assay [1] (setting [5]) was found to be 6.7 ± 8.2%. Besides, in assay [1] (setting [7]), the inhibition at 20 µM was more than 70%.
`C[C@](C#N)(COc1cc(C#N)ccc1C(F)(F)F)NC(=O)c1ccc(SC(F)(F)F)cc1` [Monepantel, reference compound]: the IC50 in assay [1] (setting [3]) is approximately 52.1 µM; in assay [1] (setting [4]) it was 6 µM; in assay [1] (setting [6]), 0.4 µM; in assay [2] (setting [8]) it was 4.3 µM; in assay [2] (setting [9]) it was 2.2 µM; in assay [2] (setting [10]), 3 µM.
`CO/N=C1\C[C@]2(C[C@@H]3C[C@@H](C/C=C(\C)C[C@@H](C)/C=C/C=C4\CO[C@@H]5[C@H](O)C(C)=C[C@@H](C(=O)O3)[C@]45O)O2)O[C@H](/C(C)=C/C(C)C)[C@H]1C` [Moxidectin, reference compound]: the IC50 in assay [1] (setting [3]) was 2.5 µM; in assay [1] (setting [4]), 2.5 µM; in assay [1] (setting [6]) it was 2.3 µM; in assay [2] (setting [8]) it was 2.2 µM; in assay [2] (setting [9]) it was 0.6 µM; in assay [2] (setting [10]), 0.0045 µM.
